Test results: patent publication US20230381144A1, “COMPOSITIONS AND METHODS FOR TREATMENT OF PAIN” (SYNVENTA LLC, priority 2019, published 2023)

Experiments:
[1] = Radio-telemetry recording of core body temperature in conscious rats; assay type: in vivo, Sprague-Dawley rat
Procedure: A laparotomy is performed.
One week later, drugs tests are conducted.
FIGS. 2-4 all show an increase in core body temperature approaching and at the zero time point. Those skilled in the art would readily appreciate that this increase is an artifact in the study associated with the required handling of the animals to effectuate the dosing.

[2] = cited from earlier work
[3] = 0.003 mg/kg and 0.01 mg/kg, i.p.; male and female rats
Procedure: Adult male and female Sprague-Dawley are implanted with radio-telemetry transmitters for monitoring blood pressure and core body temperature. Radio-telemetry transmitter (DSI HD-S10) implantation is performed under sterile condition. Long-acting buprenorphine (1 mg/kg/day, SC) is administered prior to anesthesia for postoperative pain relief. Rats are anesthetized with 5% isoflurane and kept on 2% isoflurane to maintain a stable level of anesthesia. Body temperature is maintained during surgery using a heating pad. A laparotomy is performed. The catheter tip of the telemetry transmitter is secured with a 4-0 silk suture in the abdominal cavity. The body of the telemetry transmitter is placed in the abdominal cavity and secured to the abdominal wall. Approximately 100 μL of 0.25% marcaine is applied directly to the muscle incision, and the skin is then closed with a 5-0 Vicryl absorbable suture placed subcuticularly. After recovery from anesthesia, rats are returned to their home cages placed on DSI receivers.
After one week of recovery, rats are habituated to the drug administration procedure over three separate sessions. One week later, drugs tests are conducted. […]

CC(C)(C)c1ccc2c(c1)CC[C@H]2NC(=O)Nc1cccc2[nH]ncc12 [ABT-102, 1-[(1R)-5-tert-butyl-2,3-dihydro-1H-inden-1-yl]-3-(1H-indazol-4-yl)urea]
increase in body temperature above vehicle ([1]; conscious, telemetry-instrumented rat, ABT-102 3 and 10 mg/kg, p.o., FIG. 2): up to 1.0 °C

CC(=O)Nc1nc2c(Oc3cc(-c4ccc(C(F)(F)F)cc4)ncn3)cccc2s1 [AMG 517, N-(4-((6-(4-(trifluoromethyl)phenyl)pyrimidin-4-yl)oxy)benzo[d]thiazol-2-yl)acetamide]
temperature elevations ([2]; Phase 1b study, reason the study was halted): unexpectedly high temperature elevations | analgesic effect ([2]; review of the data for the 17 subjects enrolled): no clear analgesic effect

Cc1cccc([C@H](C)c2cnc[nH]2)c1C [dexmedetomidine]
effect of dexmedetomidine on its own (FIG. 5, mean arterial blood pressure) [3]: free from causing hypothermic effects | effect on ABT-102-induced hyperthermia at the lowest tested dose ([1]; dexmedetomidine 0.003 mg/kg in combination with ABT-102, FIG. 4): able to neutralize ABT-102-induced hyperthermia | effect on core body temperature ([1]; dexmedetomidine alone, 0.003 mg/kg, FIG. 3): no effect | effect on ABT-102-induced increase in core body temperature ([1]; dexmedetomidine in combination with ABT-102 5 mg/kg, p.o., FIG. 4, p<0.0001): prevented hyperthermic effects
